Test results from paper PMC11012124, “Synthesis of Novel Triazine-Based Chalcones and 8,9-dihydro-7H-pyrimido[4,5-b][1,4]diazepines as Potential Leads in the Search of Anticancer, Antibacterial and Antifungal Agents” (International Journal of Molecular Sciences, 2024).

Legend:
60 cancer cell lines = assay: NCI-60 one-dose screen (10 μM); type: cell-based; conditions: Homo sapiens; one dose of 10 μM, mean over 60 cancer cell lines; read-out: Mean Growth Percent (MGP)
Description: Additionally, the mean of the growth percentages (MGP) of each compound against all the 60 cancer cell lines is also reported, which is used as one of the selection criteria to continue with tests at five concentration doses.

[1] = Hemolytic activity, spectrophotometric; type: cell-based, human; conditions: human, human red blood cells (huRBC), 5% hematocrit, 200 μg/mL, 37 °C
MOLT-4 = assay: cells; conditions: Homo sapiens, MOLT-4, 48 h; for CC50: read-out: LC50
RPMI-8226 = assay: cells; conditions: Homo sapiens, RPMI-8226, 48 h; for CC50: read-out: LC50
A549/ATCC = assay: cells; conditions: Homo sapiens, A549, 48 h; for CC50: read-out: LC50
EKVX = assay: cells; conditions: Homo sapiens, 48 h; for CC50: read-out: LC50
HOP-62 = assay: cells; conditions: Homo sapiens, HOP-62, 48 h; for CC50: read-out: LC50
NCI-H322M = assay: cells; conditions: Homo sapiens, 48 h; for CC50: read-out: LC50
NCI-H522 = assay: cells; conditions: Homo sapiens, NCI-H522, 48 h; for CC50: read-out: LC50
COLO 205 = assay: cells; conditions: Homo sapiens, COLO 205, 48 h; for CC50: read-out: LC50
HCC-2998 = assay: cells; conditions: Homo sapiens, HCC 2998, 48 h; for CC50: read-out: LC50
HCT-116 = assay: cells; conditions: Homo sapiens, HCT-116, 48 h; for CC50: read-out: LC50
HCT-15 = assay: cells; conditions: Homo sapiens, HCT-15, 48 h; for CC50: read-out: LC50
HT29 = assay: cells; conditions: Homo sapiens, HT-29, 48 h; for CC50: read-out: LC50
KM12 = assay: cells; conditions: Homo sapiens, KM12, 48 h; for CC50: read-out: LC50
SW-620 = assay: cells; conditions: Homo sapiens, SW-620, 48 h; for CC50: read-out: LC50
SF-539 = assay: cells; conditions: Homo sapiens, SF-539, 48 h; for CC50: read-out: LC50, SF-539, 48 h
SNB-19 = assay: cells; conditions: Homo sapiens, SNB-19, 48 h; for CC50: read-out: LC50
SNB-75 = assay: cells; conditions: Homo sapiens, SNB-75, 48 h; for CC50: read-out: LC50
U251 = assay: cells; conditions: Homo sapiens, U-251, 48 h; for GI50: U251, 48 h; for CC50: read-out: LC50
MALME-3M = assay: cells; conditions: Homo sapiens, 48 h; for CC50: read-out: LC50
M14 = assay: cells; conditions: Homo sapiens, M14, 48 h; for CC50: read-out: LC50
SK-MEL-28 = assay: cells; conditions: Homo sapiens, SK-MEL-28, 48 h; for CC50: read-out: LC50
UACC-62 = assay: cells; conditions: Homo sapiens, UACC-62, 48 h; for CC50: read-out: LC50
OVCAR-8 = assay: cells; conditions: Homo sapiens, OVCAR-8, 48 h; for CC50: read-out: LC50
SK-OV-3 = assay: cells; conditions: Homo sapiens, SK-OV-3, 48 h; for CC50: read-out: LC50
ACHN = assay: cells; conditions: Homo sapiens, 48 h; for CC50: read-out: LC50
CAKI-1 = assay: cells; conditions: Homo sapiens, CAKI-1, 48 h; for CC50: read-out: LC50
RXF 393 = assay: cells; conditions: Homo sapiens, RXF 393, 48 h; for CC50: read-out: LC50
UO-31 = assay: cells; conditions: Homo sapiens, UO-31, 48 h; for CC50: read-out: LC50
PC-3 = assay: cells; conditions: Homo sapiens, PC-3, 48 h; for CC50: read-out: LC50
DU-145 = assay: cells; conditions: Homo sapiens, DU-145, 48 h; for CC50: read-out: LC50
MDA-MB-231/ATCC = assay: cells; conditions: Homo sapiens, MDA-MB-231, 48 h; for CC50: read-out: LC50
HS 578T = assay: cells; conditions: Homo sapiens, 48 h; for CC50: read-out: LC50
BT-549 = assay: cells; conditions: Homo sapiens, BT-549, 48 h; for CC50: read-out: LC50
T-47D = assay: cells; conditions: Homo sapiens, T47D, 48 h; for CC50: read-out: LC50
MDA-MB-468 = assay: cells; conditions: Homo sapiens, MDA-MB-468, 48 h; for CC50: read-out: LC50

## COc1ccc(/C=C/C(=O)c2ccc(S(=O)(=O)NCCNc3nc(Nc4ccc(F)cc4)nc(N(C)C)n3)cc2)cc1 [24c]
60 cancer cell lines
  activity at 10 µM: 24.7%
[1]
  hemolysis at 24 h, 200 µg/mL: 0.1%
MOLT-4
  GI50: 3.12 µM
  CC50: > 100 µM
RPMI-8226
  GI50: 2.96 µM
  CC50: > 100 µM
A549/ATCC
  GI50: 6.54 µM
  CC50: > 100 µM
EKVX
  GI50: 4.12 µM
  CC50: > 100 µM
HOP-62
  GI50: 17.1 µM
  CC50: > 100 µM
NCI-H322M
  GI50: 10.2 µM
  CC50: > 100 µM
NCI-H522
  GI50: 2.55 µM
  CC50: 67.1 µM
COLO 205
  GI50: 3.46 µM
  CC50: 45.7 µM
HCC-2998
  GI50: 5.47 µM
  CC50: 43.2 µM
HCT-116
  GI50: 1.86 µM
  CC50: 7.07 µM
HCT-15
  GI50: 2.71 µM
  CC50: 27.4 µM
HT29
  GI50: 1.83 µM
  CC50: 7.63 µM
KM12
  GI50: 4.01 µM
  CC50: 72 µM
SW-620
  GI50: 5.42 µM
  CC50: 52.3 µM
SF-539
  GI50: 10.3 µM
  CC50: 51.2 µM
SNB-19
  GI50: 5.58 µM
  CC50: > 100 µM
SNB-75
  GI50: 3.57 µM
  CC50: > 100 µM
U251
  GI50: 6.7 µM
  CC50: 55.3 µM
MALME-3M
  GI50: 10.6 µM
  CC50: > 100 µM
M14
  GI50: 4.27 µM
  CC50: 99.6 µM
SK-MEL-28
  GI50: 5.23 µM
  CC50: 47.3 µM
UACC-62
  GI50: 4.79 µM
  CC50: 51.6 µM
OVCAR-8
  GI50: 9.51 µM
  CC50: > 100 µM
SK-OV-3
  GI50: 13.9 µM
  CC50: > 100 µM
ACHN
  GI50: 3.4 µM
  CC50: > 100 µM
CAKI-1
  GI50: 3.34 µM
  CC50: > 100 µM
RXF 393
  GI50: 2.59 µM
  CC50: 41.7 µM
UO-31
  GI50: 3.78 µM
  CC50: > 100 µM
PC-3
  GI50: 3.5 µM
  CC50: > 100 µM
DU-145
  GI50: 7.54 µM
  CC50: > 100 µM
MDA-MB-231/ATCC
  GI50: 2.73 µM
  CC50: 63 µM
HS 578T
  GI50: 4.68 µM
  CC50: > 100 µM
BT-549
  GI50: 13.2 µM
  CC50: 56.7 µM
T-47D
  GI50: 3.78 µM
  CC50: > 100 µM
MDA-MB-468
  GI50: 2.57 µM
  CC50: 52.6 µM

## CN(C)c1nc(NCCNS(=O)(=O)c2ccc(C(=O)/C=C/c3ccc(Cl)cc3)cc2)nc(Nc2ccc(F)cc2)n1 [24e]
60 cancer cell lines
  activity at 10 µM: -46.6%
[1]
  hemolysis at 24 h, 200 µg/mL: 9.1%
MOLT-4
  GI50: 3.07 µM
  CC50: > 100 µM
RPMI-8226
  GI50: 2.47 µM
  CC50: 7.11 µM
A549/ATCC
  GI50: 4.52 µM
  CC50: 17.4 µM
EKVX
  GI50: 3.11 µM
  CC50: 14.7 µM
HOP-62
  GI50: 12.5 µM
  CC50: 27.5 µM
NCI-H322M
  GI50: 9.36 µM
  CC50: 24.9 µM
NCI-H522
  GI50: 7.1 µM
  CC50: 22 µM
COLO 205
  GI50: 5.96 µM
  CC50: 18.7 µM
HCC-2998
  GI50: 2.48 µM
  CC50: 6.9 µM
HCT-116
  GI50: 1.66 µM
  CC50: 3.11 µM
HCT-15
  GI50: 4.62 µM
  CC50: 16.9 µM
HT29
  GI50: 2.15 µM
  CC50: 5.72 µM
KM12
  GI50: 2.97 µM
  CC50: 9.1 µM
SW-620
  GI50: 2.78 µM
  CC50: 11 µM
SF-539
  GI50: 10.1 µM
  CC50: 22 µM
SNB-19
  GI50: 9.18 µM
  CC50: 21.3 µM
SNB-75
  GI50: 5.6 µM
  CC50: 25.7 µM
U251
  GI50: 5.25 µM
  CC50: 18.6 µM
MALME-3M
  GI50: 12.8 µM
  CC50: 26.4 µM
M14
  GI50: 4.14 µM
  CC50: 15.3 µM
SK-MEL-28
  GI50: 6.77 µM
  CC50: 20.1 µM
UACC-62
  GI50: 5.41 µM
  CC50: 18.7 µM
OVCAR-8
  GI50: 10.2 µM
  CC50: 23.7 µM
SK-OV-3
  GI50: 11.5 µM
  CC50: 27.7 µM
ACHN
  GI50: 4.2 µM
  CC50: 15.3 µM
CAKI-1
  GI50: 4.93 µM
  CC50: 19.5 µM
RXF 393
  GI50: 3.09 µM
  CC50: 15.1 µM
UO-31
  GI50: 4 µM
  CC50: 16.6 µM
PC-3
  GI50: 3.74 µM
  CC50: 14.1 µM
DU-145
  GI50: 9.7 µM
  CC50: 21.8 µM
MDA-MB-231/ATCC
  GI50: 4.72 µM
  CC50: 17.4 µM
HS 578T
  GI50: 11.4 µM
  CC50: 58.1 µM
BT-549
  GI50: 11.6 µM
  CC50: 23.9 µM
T-47D
  GI50: 4.37 µM
  CC50: 18 µM
MDA-MB-468
  GI50: 3.71 µM
  CC50: 14.8 µM
